How the values were obtained:
duck salad = experiment: Test C flood test plant response rating 0 to 100; assay type: in vivo, Heteranthera limosa; conditions: for Plant response rating Duck salad: flood test species listed under POSTEMERGENCE, 0 to 100 scale
From the text: (§1) The compounds evaluated in this test were formulated in a non-phytoxic solvent and applied to the soil surface before plant seedlings emerged (preemergence application), to water that covered the soil surface (flood application), and to plants that were in the one-to-four leaf stage (postemergence application). A sandy loam soil was used for the preemergence and postemergence tests, while a silt loam soil was used in the flood test. Water depth was approximately 2.5 cm for the flood test and was maintained at this level for the duration of the test. Plant species in the preemergence and postemergence tests consisted of barley (Hordeum vulgare), bedstraw (Galium aparine), blackgrass (Alopecurus myosuroides), chickweed (Stellaria media), corn (Zea mays), cotton (Gossypium hirsutum), crabgrass (Digitaria sanguinalis), downy brome (Bromus tectorum), giant foxtail (Setaria faberii), lambsquarters (Chenopodium album), morningglory (Ipomoea hederacea), pigweed ([…]), rape (Brassica napus), ryegrass (Lolium multiflorum), sorghum (Sorghum bicolor), soybean (Glycine max), speedwell (Veronica persica), sugar beet (Beta vulgaris), velvetleaf (Abutilon theophrasti), wheat (Triticum aestivum), wild buckwheat (Polygonum convolvulus), and wild oat (Avena fatua). All plant species were planted one day before application of the compound for the preemergence portion-of this test. Plantings of these species were adjusted to produce plants of appropriate size for the post-emergence portion of the test. […] All plant species were grown using normal greenhouse practices. Visual evaluations of injury expressed on treated plants, when compared to untreated controls, were recorded approximately fourteen to twenty one days after application of the test compound. […] A dash (-) response means no test result.

corn = experiment: Test C preemergence/postemergence greenhouse plant response rating 0 to 100; assay type: in vivo, Zea mays; conditions: POSTEMERGENCE; for Plant response rating, Corn: 0 to 100 scale
From the text: as §1

umbrella sedge = experiment: Test C flood test plant response rating 0 to 100; assay type: in vivo, Cyperus difformis; conditions: for Plant response rating Umbrella sedge: flood test species listed under POSTEMERGENCE, 0 to 100 scale
From the text: as §1

velvetleaf = experiment: Test C preemergence/postemergence greenhouse plant response rating 0 to 100; assay type: in vivo, Abutilon theophrasti; conditions: POSTEMERGENCE; for Plant response rating, Velvetleaf: 0 to 100 scale
From the text: as §1

purple nutsedge = experiment: Test B preemergence/postemergence greenhouse plant response rating 0 to 10; assay type: in vivo, Cyperus rotundus; conditions: 0 to 10 scale
How it was run: (§2)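 Planted seeds are treated preemergence with compound dissolved in a non-phytotoxic solvent, while postemergence applications go onto plants of two to eighteen cm. Plants stay in the greenhouse twelve to sixteen days and are then rated visually relative to controls.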

soybean = experiment: as above; assay type: in vivo, Glycine max; conditions: 0 to 10 scale
How it was run: as §2

wild buckwheat = experiment: as above; assay type: in vivo, Polygonum convolvulus; conditions: 0 to 10 scale
How it was run: as §2

chickweed = experiment: Test C preemergence/postemergence greenhouse plant response rating 0 to 100; assay type: in vivo, Stellaria media; conditions: POSTEMERGENCE; for Plant response rating, Chickweed: 0 to 100 scale
From the text: as §1

cotton = experiment: as above; assay type: in vivo, Gossypium hirsutum; conditions: POSTEMERGENCE; for Plant response rating, Cotton: 0 to 100 scale
From the text: as §1

rice [1] = experiment: Test C flood test plant response rating 0 to 100; assay type: in vivo, Oryza sativa; conditions: for Plant response rating Rice Japonica: flood test species listed under POSTEMERGENCE, 0 to 100 scale
From the text: as §1

blackgrass = experiment: Test C preemergence/postemergence greenhouse plant response rating 0 to 100; assay type: in vivo, Alopecurus myosuroides; conditions: POSTEMERGENCE; for Plant response rating, Blackgrass: 0 to 100 scale
From the text: as §1

rice [2] = experiment: Test B preemergence/postemergence greenhouse plant response rating 0 to 10; assay type: in vivo, Oryza sativa; conditions: 0 to 10 scale
How it was run: as §2

sugar beet = experiment: Test C preemergence/postemergence greenhouse plant response rating 0 to 100; assay type: in vivo, Beta vulgaris; conditions: POSTEMERGENCE; for Plant response rating, Sugar beet: 0 to 100 scale
From the text: as §1

giant foxtail = experiment: as above; assay type: in vivo, Setaria faberii; conditions: POSTEMERGENCE; for Plant response rating, Giant foxtail: 0 to 100 scale
From the text: as §1

bedstraw = experiment: as above; assay type: in vivo, Galium aparine; conditions: POSTEMERGENCE; for Plant response rating, Bedstraw: 0 to 100 scale
From the text: as §1

cocklebur = experiment: Test B preemergence/postemergence greenhouse plant response rating 0 to 10; assay type: in vivo, Xanthium pensylvanicum; conditions: for Plant response rating, Cocklebur: 0 to 10 scale
How it was run: as §2

pigweed = experiment: Test C preemergence/postemergence greenhouse plant response rating 0 to 100; assay type: in vivo, Amaranthusretroflexus; conditions: POSTEMERGENCE; for Plant response rating Pigweed: 0 to 100 scale
From the text: as §1

[3] = POSTEMERGENCE section, flood test, Rate 4 g/ha
[4] = Rate 16 g/ha, under POSTEMERGENCE head (flood test species)

COc1cc(-c2nn3c(c2Cl)CCCC3)c(F)cc1Cl [Compound 29]
40: Plant response rating, Corn (corn; 62 g/ha) | Plant response rating (0 to 100), Chickweed (chickweed; Rate 16 g/ha)
95: Plant response rating Duck salad (duck salad; 62 g/ha) | Plant response rating Umbrella sedge (umbrella sedge; 250 g/ha) | Plant response rating, Chickweed (chickweed; 250 g/ha)
90: Plant response rating Umbrella sedge (umbrella sedge; 62 g/ha) | Plant response rating Rice Japonica (rice [1]; 250 g/ha) | Plant response rating, Blackgrass (blackgrass; 250 g/ha) | Plant response rating (0 to 100), Sugar beet (sugar beet; Rate 16 g/ha) | Plant response rating (0 to 100), Bedstraw (bedstraw; Rate 4 g/ha)
8: Plant response rating, Soybean (soybean; POSTEMERGENCE, Rate 50 g/ha) | Plant response rating, Wild buckwheat (wild buckwheat; PREEMERGENCE, Rate 50 g/ha)
4: Plant response rating, Nutsedge (purple nutsedge; POSTEMERGENCE, Rate 50 g/ha) | Plant response rating, Nutsedge (purple nutsedge; Rate 200 g/ha, POSTEMERGENCE) | Plant response rating, Rice (rice [2]; POSTEMERGENCE, Rate 50 g/ha) | Plant response rating, Cocklebur (cocklebur; Rate 200 g/ha, PREEMERGENCE)
2: Plant response rating, Rice (rice [2]; Rate 200 g/ha, PREEMERGENCE) | Plant response rating, Cocklebur (cocklebur; PREEMERGENCE, Rate 50 g/ha)
70: Plant response rating Rice Japonica (rice [1]; 62 g/ha) | Plant response rating, Giant foxtail (giant foxtail; 62 g/ha)
85: Plant response rating (0 to 100), Duck salad (duck salad; [4])
60: Plant response rating, Chickweed (chickweed; 62 g/ha)
7: Plant response rating, Rice (rice [2]; Rate 200 g/ha, POSTEMERGENCE)
100: Plant response rating Duck salad (duck salad; 250 g/ha) | Plant response rating, Velvetleaf (velvetleaf; 62 g/ha) | Plant response rating, Velvetleaf (velvetleaf; 250 g/ha) | Plant response rating (0 to 100), Velvetleaf (velvetleaf; Rate 16 g/ha) | Plant response rating, Cotton (cotton; 62 g/ha) | Plant response rating, Cotton (cotton; 250 g/ha) | Plant response rating (0 to 100), Cotton (cotton; Rate 4 g/ha) | Plant response rating (0 to 100), Cotton (cotton; Rate 16 g/ha) | Plant response rating, Sugar beet (sugar beet; 62 g/ha) | Plant response rating, Sugar beet (sugar beet; 250 g/ha) | Plant response rating, Giant foxtail (giant foxtail; 250 g/ha) | Plant response rating, Bedstraw (bedstraw; 62 g/ha) | Plant response rating, Bedstraw (bedstraw; 250 g/ha) | Plant response rating (0 to 100), Bedstraw (bedstraw; Rate 16 g/ha) | Plant response rating Pigweed (pigweed; 62 g/ha) | Plant response rating Pigweed (pigweed; 250 g/ha) | Plant response rating (0 to 100), Pigweed (pigweed; Rate 16 g/ha)
9: Plant response rating, Soybean (soybean; Rate 200 g/ha, POSTEMERGENCE)
1: Plant response rating, Soybean (soybean; PREEMERGENCE, Rate 50 g/ha)
65: Plant response rating (0 to 100), Rice Japonica (rice [1]; [4])
10: Plant response rating, Wild buckwheat (wild buckwheat; POSTEMERGENCE, Rate 50 g/ha) | Plant response rating, Wild buckwheat (wild buckwheat; Rate 200 g/ha, POSTEMERGENCE) | Plant response rating, Wild buckwheat (wild buckwheat; Rate 200 g/ha, PREEMERGENCE) | Plant response rating (0 to 100), Chickweed (chickweed; Rate 4 g/ha) | Plant response rating, Cocklebur (cocklebur; POSTEMERGENCE, Rate 200 g/ha)
30: Plant response rating (0 to 100), Umbrella sedge (umbrella sedge; [4]) | Plant response rating (0 to 100), Rice Japonica (rice [1]; [3]) | Plant response rating (0 to 100), Blackgrass (blackgrass; Rate 16 g/ha)
6: Plant response rating (0 to 10 scale), Cocklebur (cocklebur; POSTEMERGENCE, Rate 50 g/ha)
5: Plant response rating, Soybean (soybean; Rate 200 g/ha, PREEMERGENCE)
0: Plant response rating, Nutsedge (purple nutsedge; PREEMERGENCE, Rate 50 g/ha) | Plant response rating, Nutsedge (purple nutsedge; Rate 200 g/ha, PREEMERGENCE) | Plant response rating, Rice (rice [2]; PREEMERGENCE, Rate 50 g/ha) | Plant response rating (0 to 100), Giant foxtail (giant foxtail; Rate 4 g/ha)
50: Plant response rating, Corn (corn; 250 g/ha) | Plant response rating (0 to 100), Velvetleaf (velvetleaf; Rate 4 g/ha) | Plant response rating, Blackgrass (blackgrass; 62 g/ha) | Plant response rating (0 to 100), Pigweed (pigweed; Rate 4 g/ha)
20: Plant response rating (0 to 100), Duck salad (duck salad; [3]) | Plant response rating (0 to 100), Corn (corn; Rate 4 g/ha) | Plant response rating (0 to 100), Corn (corn; Rate 16 g/ha) | Plant response rating (0 to 100), Umbrella sedge (umbrella sedge; [3]) | Plant response rating (0 to 100), Blackgrass (blackgrass; Rate 4 g/ha) | Plant response rating (0 to 100), Giant foxtail (giant foxtail; Rate 16 g/ha)
